Experimental data taken from patent US5843968A, “Symmetrical bis-heteroarylmethoxy-phenylalkyl carboxylates as inhibitors of leukotriene biosynthesis” (Abbott Laboratories, priority 1997, dated 1998).
Where a name gives a salt, the structure may show the parent alone. Read-outs that look alike come from different tables or passages of the source. Each block holds one compound with its values, some of them ahead of it.

Assays:
5-Lipoxygenase = experiment: Inhibition of calcium ionophore-induced LTB4 formation in human polymorphonuclear leukocytes (PMNL), in vitro; assay type: cell-based; conditions: 15 min preincubation, calcium ionophore stimulation 10 min at 37° C., LTB4 by enzyme-linked immunoassay or HPLC, read-out: IC50, In Vitro Inhibitory Potencies Against 5-Lipoxygenase From Stimulated LTB4 Formation in Human Polymorphonuclear Leukocytes
Description: Inhibition of leukotriene biosynthesis was evaluated in vitro using an assay involving calcium ionophore-induced LTB4 expressed in human polymorphornuclear leukocytes (PMNL). Human PMNL isolated from heparinized (20 USP units/mL) venous blood (25 mL) obtained from healthy volunteers was layered over an equal volume of Ficoll-Hypaque Mono-Poly Resolving Medium (ICN Flow, Costa Mesa, Calif.) and centrifugated at 400×g for 40 minutes at 20° C. The PMNL was collected, erythrocytes lysed and washed 2× and suspended at 1.0×10^7 cells/mL in Earle's balanced salt solution with 17 mM Earle's HEPES. Aliquots of the cell suspension were preincubated with test compounds dissolved in DMSO (final concentration <2%) for 15 minutes and stimulated with calcium ionophore (final concentration 8.3, μM) for 10 minutes at 37° C. Incubations were stopped with the addition of two volumes of ice-cold methanol followed by centrifuging the cell suspensions at 4° C. for 10 minutes at ~450×g. The amount of LTB4 in the methanol extract was analyzed by enzyme-linked immunoassay or by HPLC analysis.

leukotriene biosynthesis = experiment: Inhibition of leukotriene biosynthesis in vivo, Ionophore-Induced Rat Pleural Inflammation Model; conditions: 0.5 h, male rats, dosed in 0.2% methocel one hour prior to intrapleural A23187, lavage 30 min later, enzyme immunoassay
Description: Inhibition of leukotriene biosynthesis in vivo was evaluated using the Ionophore […]-Induced Rat Plueral Inflammation Model. […] Rats were dosed with experimental compounds in 0.2% methocel one hour prior to the intrapleural injection of the calcium ionophore, A23187. The rats where lightly anesthetized with Pentrane (Abbott Laboratories) and injected intrapleurally with 0.5 ml of 2% ethanol in injectable saline (Abbott Laboratories) containing 20 μg of A23187 (Cal BioChem-Novabiochem). Thirty minutes later the animals were euthanised and the pleural cavities lavaged with ice cold saline (Abbott Laboratories). The lavage fluid was then added to ice cold methanol (final methanol concentration 30%) to lyse cells and precipitate protein. Eicosanoids were determined by enzyme immunoassay by standard methods.

SMILES: CC(CCC=NOCC(=O)O)(c1ccc(OCc2ccc3ccccc3n2)cc1)c1ccc(OCc2ccc3ccccc3n2)cc1 [Example 7]
- IC50 (5-Lipoxygenase): 40 nM

SMILES: CC(CCC(=O)O)(c1ccc(OCc2nc3ccccc3s2)cc1)c1ccc(OCc2nc3ccccc3s2)cc1 [Example 8, 4,4-bis(4-(2-benzothiazoylmethoxy)phenyl)pentanoic acid]
- IC50 (5-Lipoxygenase): 46 nM

SMILES: CC(CCC(=O)O)(c1ccc(OCc2ccc3cc(F)ccc3n2)cc1)c1ccc(OCc2ccc3cc(F)ccc3n2)cc1 [Example 11, 4,4-bis(4-(6-fluoro-2-quinolylmethoxy)phenyl)pentanoic acid sodium salt]
- IC50 (5-Lipoxygenase): 40 nM
- inhibition in vivo at 3 mg/kg (leukotriene biosynthesis): 42%

SMILES: CC(CCC(=O)O)(c1ccc(OCc2ccc3ccccc3n2)c(Cl)c1)c1ccc(OCc2ccc3ccccc3n2)c(Cl)c1 [Example 20, 4,4-bis(3-chloro-4-(2-quinolylmethoxy)phenyl)pentanoic acid]
- IC50 (5-Lipoxygenase): 26 nM

SMILES: CCC(C(=O)O)(c1ccc(OCc2ccc3ccccc3n2)cc1)c1ccc(OCc2ccc3ccccc3n2)cc1 [Example 24, 2,2-bis(4-(2-quinolylmethoxy)phenyl)butyric acid]
- inhibition in vivo at 3 mg/kg (leukotriene biosynthesis): 38%

SMILES: CC(O)(c1ccc(OCc2ccc3ccccc3n2)cc1)c1ccc(OCc2ccc3ccccc3n2)cc1 [Example 25, 1,1-bis(4-(2-quinolylmethoxy)phenyl)ethanol]
- IC50 (5-Lipoxygenase): 50 nM

SMILES: CC(C)(C(=O)O)C(c1ccc(OCc2ccc3ccccc3n2)cc1)c1ccc(OCc2ccc3ccccc3n2)cc1 [Example 26, 2,2-dimethyl-3,3-bis(4-(2-quinolylmethoxy)phenyl)propionic acid sodium salt]
- IC50 (5-Lipoxygenase): 80 nM
- inhibition in vivo at 3 mg/kg (leukotriene biosynthesis): 50%

SMILES: O=C(O)C(c1ccc(OCc2ccc3cc(F)ccc3n2)cc1)c1ccc(OCc2ccc3cc(F)ccc3n2)cc1 [Example 30, 2,2-bis(4-(6-fluoro-2-quinolymethoxy)phenyl)acetic acid]
- IC50 (5-Lipoxygenase): 50 nM

SMILES: O=C(O)CC(c1ccc(OCc2ccc3ccccc3n2)cc1)c1ccc(OCc2ccc3ccccc3n2)cc1 [Example 34, 3,3-bis(4-(2-quinolylmethoxy)phenyl)propionic acid sodium salt]
- IC50 (5-Lipoxygenase): 70 nM
- inhibition in vivo at 3 mg/kg (leukotriene biosynthesis): 30%

SMILES: CC(=NOCCC#CC(O)(c1ccc(OCc2ccc3ccccc3n2)cc1)c1ccc(OCc2ccc3ccccc3n2)cc1)C(=O)O [Example 38, [5,5-bis(4-(2-quinolylmethoxy)phenyl)-5-hydroxy-3-pentyn-1-yl]-2-iminoxypropionic acid sodium salt]
- IC50 (5-Lipoxygenase): 60 nM
- inhibition in vivo at 3 mg/kg (leukotriene biosynthesis): 40%

Further lines, with some results ahead:

- IC50 (5-Lipoxygenase): 40 nM
SMILES: CC(CCC(=O)O)(c1ccc(OCc2ccc3ccccc3n2)cc1)c1ccc(OCc2ccc3ccccc3n2)cc1 [Example 1, 4,4-bis(4-(2-quinolylmethoxy)phenyl)pentanoic acid]

- IC50 (5-Lipoxygenase; sodium salt): 69 nM
SMILES: CC(CCC(=O)O)(c1ccc(OCc2ccc3ccccc3n2)cc1)c1ccc(OCc2ccc3ccccc3n2)cc1 [Example 2, 4,4-bis(4-(2-quinolylmethoxy)phenyl)pentanoic acid sodium salt]
- inhibition in vivo at 3 mg/kg (leukotriene biosynthesis): 53%

- IC50 (5-Lipoxygenase): 30 nM
SMILES: CC(CCCON=CC(=O)O)(c1ccc(OCc2ccc3ccccc3n2)cc1)c1ccc(OCc2ccc3ccccc3n2)cc1 [Example 5, [4,4-bis(4-(2-quinolylmethoxy)phenyl)pent-1-yl]iminoxyacetic acid]

- IC50 (5-Lipoxygenase): 35 nM
SMILES: CC(=NOCCCC(C)(c1ccc(OCc2ccc3ccccc3n2)cc1)c1ccc(OCc2ccc3ccccc3n2)cc1)C(=O)O [Example 6, [4,4-bis(4-(2-quinolylmethoxy)phenyl)pent-1-yl]-2-iminoxypropionic acid]

- IC50 (5-Lipoxygenase; sodium salt): 50 nM
SMILES: CC(CCC(=O)O)(c1ccc(OCc2nc3ccccc3s2)cc1)c1ccc(OCc2nc3ccccc3s2)cc1 [Example 9, 4,4bis(4-(2-benzothiazoylmethoxy)phenyl)pentanoic acid sodium salt]

- IC50 (5-Lipoxygenase): 32 nM
SMILES: CC(C(=O)O)(c1ccc(OCc2ccc3ccccc3n2)cc1)c1ccc(OCc2ccc3ccccc3n2)cc1 [Example 12, 2,2-bis(4-(2-quinolylmethoxy)phenyl)propionic acid]

- IC50 (5-Lipoxygenase): 43 nM
SMILES: CC(CCCC(=O)O)(c1ccc(OCc2ccc3ccccc3n2)cc1)c1ccc(OCc2ccc3ccccc3n2)cc1 [Example 14, 5,5-bis(4-(2-quinolylmethoxy)phenyl)hexanoic acid]
- inhibition in vivo at 3 mg/kg (leukotriene biosynthesis): 32%

- IC50 (5-Lipoxygenase): 28 nM
SMILES: CC(C)(C=NOCC(=O)O)C(c1ccc(OCc2ccc3ccccc3n2)cc1)c1ccc(OCc2ccc3ccccc3n2)cc1 [Example 27, sodium salt]
- inhibition in vivo at 3 mg/kg (leukotriene biosynthesis): 42%

- IC50 (5-Lipoxygenase): 34 nM
SMILES: CC(C)(CON=CC(=O)O)C(c1ccc(OCc2ccc3ccccc3n2)cc1)c1ccc(OCc2ccc3ccccc3n2)cc1 [Example 28, 2,2-dimethyl-3,3-bis(4-(2-quinolylmethoxy)phenyl)-1-propyliminoxyacetic acid]

- IC50 (5-Lipoxygenase): 35 nM
SMILES: O=C(O)CON=CC(c1ccc(OCc2ccc3ccccc3n2)cc1)c1ccc(OCc2ccc3ccccc3n2)cc1 [Example 31, 2,2-bis(4-(2-quinolylmethoxy)phenyl)eth-1-yloximinoacetic acid]

- IC50 (5-Lipoxygenase): 25 nM
SMILES: CC(=NOCCC(C)(c1ccc(OCc2ccc3ccccc3n2)cc1)c1ccc(OCc2ccc3ccccc3n2)cc1)C(=O)O [Example 36, [3,3-bis-(2-quinolylmethoxyphenyl)but-1-yl]-2-iminoxypropionic acid]
